In patent US12012404B2, “Pyrimidoheterocyclic compounds and application thereof” (D3 BIO (WUXI) CO., LTD., priority 2020, dated 2024):

Experiments:
Assay type in all cases: in vitro ADME
[1] = Metabolic stability in hepatocytes, SD rats
Description: (§1) Purpose of the assay: Metabolic stabilities of assay compounds in hepatocytes of CD-1 mice, SD rats, beagle dogs, cynomolgus monkeys, and human were assayed, respectively.
(§2) Procedure of the assay: Several 96-well sample precipitation plates were prepared and named T0, T15, T30, T60, T90, T120, TO-MC, T120-MC and blank substrates, respectively. The recovery medium and incubation medium were taken out in advance and placed in a 37° C. water bath for pre-heating. Cryopreserved hepatocytes were removed from the liquid nitrogen tank and immediately immersed in a 37° C. water bath (approximately 90 seconds). After the cryopreserved hepatocytes had thawed and loosened, they were poured into a centrifuge tube containing 40 mL of recovery medium, and the tube was gently inverted to allow the cells to be resuspended in the recovery medium. The cells were centrifuged at 100×g at room temperature for 5 min, and the supernatant was removed. The hepatocytes were resuspended in an appropriate volume of incubation medium, and the cell viability was calculated by Trypan Blue staining method. 198 μL of hepatocyte suspension (0.51×10^6 cells/mL) was added to the preheated incubation plate. For the culture medium control group, 198 μL of hepatocyte-free incubation medium was added to T0-MC and T120-MC incubation plate. All incubation plates were pre-incubated in a 37° C. incubator for 10 minutes. Then 2 μL of working solutions of the assay sample and the control compound were added, respectively, and the mixture was mixed well. The incubation plate was immediately put into the shaker in the incubator, and the reaction was initiated while starting the timer. For each time point of each compound, 2 duplicate samples were prepared. The incubation conditions were 37° C., saturated humidity, and 5% CO2. In the assay system, the final concentration of the assay sample was 1 μM, the final concentration of the control sample was 3 μM, the final concentration of hepatocytes was 0.5×10^6 cells/mL, and the final concentration of the total organic solvent was 0.96%, of which the final concentration of DMSO was 0.1%. At the end of the incubation for the corresponding time point, the incubation plate was taken out, and 25 μL of a mixture of compound and control compound with cells was added to the sample plate containing 125 μL of stop solution (200 ng/mL tolbutamide and labetalol in acetonitrile). For the Blank sample plate, 25 μL of hepatocyte-free incubation medium was added directly. After sealing, all sample plates were shaken on a shaker at 600 rpm for 10 minutes, and then centrifuged at 3220×g for 20 minutes. Supernatants of the assay sample and the control sample were diluted with ultrapure water at a ratio of 1:3. All samples were mixed well and analyzed by LC/MS/MS.

[2] = Metabolic stability in hepatocytes, cynomolgus monkeys
Description: as §1, §2

[3] = In vitro stability in liver microsomes, human; details: 0.5 mg/mL
Description: Purpose of the assay: Metabolic stabilities of the assay compounds in liver microsomes of CD-1 mice, SD rats, beagle dogs, cynomolgus monkeys, and human were assayed, respectively.
Procedure of the assay: Two 96-well incubation plates were prepared and named T60 incubation plate and NCF60 incubation plate, respectively. 445 μL of microsomal working solutions (liver microsomal protein concentration of 0.56 mg/mL) were added to the T60 incubation plate and the NCF60 incubation plate, respectively, and then the above incubation plates were pre-incubated in a 37° C. water bath for about 10 minutes.
After the pre-incubation, 5 μL of working solutions of the assay sample or the control compound were added to the T60 incubation plate and the NCF60 incubation plate, respectively, and the mixture was mixed well. 50 μL of potassium phosphate buffer was added to each well of the NCF60 incubation plate to initiate the reaction. 180 μL of stop solution (200 ng/mL tolbutamide and 200 ng/mL labetalol in acetonitrile) and 6 uL of NADPH regeneration system working solution were added to the T0 stop plate, and 54 μL of sample was transferred from T60 incubation plate to T0 stop plate (generation of TO sample). The reaction was initiated by adding 44 μL of NADPH regeneration system working solution to each well of the T60 incubation plate. Only 54 μL of microsome working solution, 6 uL of NADPH regeneration system working solution and 180 μL of stop solution were added to the Blank plate. Therefore, in samples of the assay compound or the control compound, the final reaction concentration of compound, testosterone, diclofenac and propafenone was 1 μM, the concentration of liver microsomes was 0.5 mg/mL, and the final reaction concentrations of DMSO and acetonitrile in the reaction system were 0.01% (v/v) and 0.99% (v/v), respectively.
After an appropriate time (e.g., 5, 15, 30, 45 and 60 minutes) of incubation, 180 μL of stop solutions (200 ng/mL tolbutamide and 200 ng/mL labetalol in acetonitrile) were added to the sample wells of each stop plate, respectively. 60 μL of sample was removed from the T60 incubation plate to stop the reaction. All sample plates were shaken well and then centrifuged at 3220×g for 20 minutes. Then 80 μL of supernatant was taken out from each well, and diluted in 240 μL of pure water for liquid chromatography-tandem mass spectrometry analysis. All samples were injected and analyzed by liquid chromatography-tandem mass spectrometry.

[4] = Stability assay in whole blood, CD-1 mice; details: CD-1 mice whole blood, 5 μM, 37° C.
Description: Purpose of the assay: Stabilities of the assay compounds in whole blood of CD-1 mice, SD rats, Beagle dogs and cynomolgus monkeys were assayed, respectively.
Procedure of the assay: On the day of the assay or the day before the assay, fresh whole blood from CD-1 mice, SD rats, beagle dogs, and cynomolgus monkeys was collected using anticoagulant EDTA-K2. Prior to the start of the assay, the whole blood was mixed with PBS in 1:1 (v:v) and the mixture was preheated in a 37° C. water bath for 10-20 minutes. […] […] All samples were incubated in a 37° C. water bath. The final incubation concentration of the compound was 5 μM and the final incubation concentration of the control compound was 2 μM. At the end of incubation for each time point, the corresponding incubation plate was removed and 100 μL of ultrapure water was immediately added to the corresponding sample wells, and mixed well. 800 μL of a solution of 200 ng/mL tolbutamide and labetalol in acetonitrile was added to precipitate the protein. The sample plates were sealed and shaken well, and then centrifuged at 3220×g for 20 min. 150 μL of supernatant was taken out and analyzed by LC/MS/MS.

[5] = tested on: plasma protein of SD rats; assay: Protein binding rate by equilibrium dialysis, SD rats plasma; details: for Protein unbound rate: SD rats plasma, 2 μM, dialysis 4 hours
Description: Purpose of the assay: Protein binding rate of the assay compounds in plasma of CD-1 mice, SD rats, beagle dogs, cynomolgus monkeys and human was determined by equilibrium dialysis.
Procedure of the assay: Plasma samples with a compound concentration of 2 μM were prepared using plasma of the above five species, placed in a 96-well equilibrium dialysis device, and dialyzed with phosphate buffer solution at 37±1° C. for 4 hours. Warfarin was used as the control compound in this assay. The concentrations of the assay compounds in plasma and dialysis buffer were determined by LC-MS/MS method.

**Q.** For `C=C(F)C(=O)N1CCN(c2nc(OCC3CCCN3C)nc3c2COC(c2c(F)c(N)cc(C)c2C(F)(F)F)C3)CC1CC#N.Cl` (single isomer, unassigned) [Compound 8B hydrochloride], which “CLint(hep)” value ([1]; 1 μM) is on record?
**A.** 7.5 μL/min/10^6

**Q.** What about the “CLint(liver)” value ([1]; 1 μM) of the same compound?
**A.** 35.0 mL/min/kg

**Q.** And the T1/2 ([1]; 1 μM)?
**A.** 185.2 min

**Q.** What about the “CLint(hep)” value ([2]; 1 μM) of the same compound?
**A.** 10.2 μL/min/10^6

**Q.** What about the “CLint(liver)” value ([2]; 1 μM) of the same compound?
**A.** 36.7 mL/min/kg

**Q.** What about the T1/2 ([2]; 1 μM) of the same compound?
**A.** 136.1 min

**Q.** What about the “CLint(liver)” value ([3]; 1 μM) of the same compound?
**A.** 20.7 mL/min/kg

**Q.** And the CLint(mic) ([3]; 1 μM)?
**A.** 23 µL/min/mg

**Q.** What about the T1/2 ([3]; 1 μM) of the same compound?
**A.** 60.3 min

**Q.** What about the “Detection of assay compound content within 120 min” value [4] of the same compound?
**A.** 100%

**Q.** And the Protein unbound rate [5]?
**A.** 9.8

**Q.** What about the “Plasma protein unbound rate PPB (Unbound %)” value ([5]; SD rats, as listed in PK Table 8) of the same compound?
**A.** 9.8%

**Q.** For `C=C(F)C(=O)N1CCN(c2nc(OC[C@@]34CCCN3C[C@H](F)C4)nc3c2COC(c2c(F)c(N)cc(C)c2C(F)(F)F)C3)C[C@@H]1CC#N` (some centres unmarked) [Compound 17], which “CLint(hep)” value ([1]; 1 μM) is on record?
**A.** 67.4 μL/min/10^6

**Q.** What about the half-life at 1 μM ([1]; rat, cryopreserved hepatocytes) of the same compound?
**A.** 20.6 min

**Q.** What about the CLint scaled at 1 μM ([1]; rat, cryopreserved hepatocytes, read-out: CLint(liver)) of the same compound?
**A.** 315 mL/min/kg

**Q.** And the “CLint(hep)” value ([2]; 1 μM)?
**A.** 51.3 μL/min/10^6

**Q.** What about the half-life at 1 μM ([2]; cynomolgus monkey, cryopreserved hepatocytes) of the same compound?
**A.** 27 min

**Q.** And the CLint scaled at 1 μM ([2]; cynomolgus monkey, cryopreserved hepatocytes, read-out: CLint(liver))?
**A.** 185 mL/min/kg

**Q.** And the CLint(mic) ([3]; 1 μM)?
**A.** 67.9 µL/min/mg

**Q.** What about the CLint scaled at 1 μM [3] of the same compound?
**A.** 61.1 mL/min/kg

**Q.** What about the half-life at 1 μM [3] of the same compound?
**A.** 20.4 min

**Q.** And the “Detection of assay compound content within 120 min” value [4]?
**A.** 117%

**Q.** What about the Protein unbound rate [5] of the same compound?
**A.** 4.8
